Data from patent publication US10961202B2, “Bis-benzimidazole compounds and methods of using the same” (THE SCRIPPS RESEARCH INSTITUTE, priority 2017, dated 2021).
pIC50: −log10 of the molar value.

Tested on: r(CUG)12-MBNL1 complex
Assay: Inhibition of the r(CUG)12-MBNL1 complex measured by TR-FRET
Assay type: biochemical
Conditions: 80 nM RNA, 60 nM MBNL1-His6

C#CCCCCNC(=O)CCCOc1ccc2[nH]c(-c3ccc(-c4nc5cc(OCCCN(C)C)ccc5[nH]4)cc3)nc2c1 [Compound 323]
pIC50 (Table M): 4.69

CN(C)CCCOc1cc(F)cc2nc(-c3ccc(-c4nc5cc(F)cc(OCCCN(C)C)c5[nH]4)cc3)[nH]c12 [Compound 287]
pIC50 (Table M): 5.07

CC(=O)NCCNC(=O)c1ccc2nc(-c3ccc(-c4nc5ccc(C(=O)NCCNC(C)=O)cc5[nH]4)cc3)[nH]c2c1 [Compound 51, 2,2′-(1,4-phenylene)bis(N-(2-acetamidoethyl)-1H-benzo[d]imidazole-6-carboxamide)]
pIC50 (Table L): < 3.70

C[C@@H](NC(=O)CN(CCN)C(=O)c1ccc(-c2nc3cc(-c4ccc5[nH]c(-c6ccc(C(=O)NCCN(C)C)cc6)nc5c4)ccc3[nH]2)cc1)C(=O)N[C@H](C)C(=O)N[C@H](C)C(=O)N[C@H](C)C(=O)N(CCNC(=O)c1ccc(-c2nc3cc(-c4ccc5[nH]c(-c6ccc(C(=O)NCCN(C)C)cc6)nc5c4)ccc3[nH]2)cc1)CC(N)=O (single isomer, unassigned) [Compound 443]
pIC50 (Table M): 5.10

CN(C)CCn1cc(-c2ccc3nc(-c4ccc(-c5nc6ccc(-c7cn(CCN(C)C)nn7)cc6[nH]5)cc4)[nH]c3c2)nn1 [Compound 251, 2,2′-(4,4′-(2,2′-(1,4-phenylene)bis(1H-benzo[d]imidazole-6,2-diyl))bis(1H-1,2,3-triazole-4,1-diyl))bis(N,N-dimethylethanamine)]
pIC50 (Table M): 3.95

CN(C)CCNC(=O)c1ccc(-c2nc3ccc(-c4ccc5nc(-c6ccc(C(=O)NCC(C)(C)CNC(=O)c7ccc(-c8nc9ccc(-c%10ccc%11nc(-c%12ccc(C(=O)NCCN(C)C)cc%12)[nH]c%11c%10)cc9[nH]8)cc7)cc6)[nH]c5c4)cc3[nH]2)cc1 [Compound 425]
pIC50 (Table M): 5.01

CN(C)CCNC(=O)c1ccc(-c2nc3cc(-c4ccc5[nH]c(-c6ccc(C(=O)NC7CCCCC7NC(=O)c7ccc(-c8nc9cc(-c%10ccc%11[nH]c(-c%12ccc(C(=O)NCCN(C)C)cc%12)nc%11c%10)ccc9[nH]8)cc7)cc6)nc5c4)ccc3[nH]2)cc1 (stereo not shown) [Compound 410]
pIC50 (Table M): 4.46

CC(C(=O)N(C)C(C)C(=O)N(C)C(C)C(=O)N(C)C(C)C(=O)N(CCCn1cc(CCCCN(C)CCOc2ccc(-c3nc4cc(-c5ccc6[nH]c(-c7ccc(OCCN(C)C)cc7)nc6c5)ccc4[nH]3)cc2)nn1)CC(N)=O)N(C)C(=O)CNCCCn1cc(CCCCN(C)CCOc2ccc(-c3nc4cc(-c5ccc6[nH]c(-c7ccc(OCCN(C)C)cc7)nc6c5)ccc4[nH]3)cc2)nn1 (stereo not shown) [compound 164]
pIC50 (Table M): 5.72

NC(=O)c1ccc(-c2nc3cc(-c4ccc5[nH]c(-c6ccc(C(N)=O)cc6)nc5c4)ccc3[nH]2)cc1 [Compound 101]
pIC50 (Table L): < 3.70

CN(C)CCCOc1ccc2nc(-c3ccc(-c4nc5ccc(OCCCC(F)(F)F)cc5[nH]4)cc3)[nH]c2c1 [Compound 240, N,N-dimethyl-3-((2-(4-(6-(4,4,4-trifluorobutoxy)-1H-benzo[d]imidazol-2-yl)phenyl)-1H-benzo[d]imidazol-6-yl)oxy)propan-1-amine]
pIC50 (Table M): 4.15

CN(C)CCNC(=O)c1ccc(-c2nc3cc(-c4ccc5[nH]c(-c6ccc(C#N)cc6)nc5c4)ccc3[nH]2)cc1 [Compound 109]
pIC50 (Table L): 4.82

CN(C)CCNC(=O)c1ccc(-c2nc3ccc(-c4ccc5nc(-c6ccc(C(=O)N[C@@H]7CCN(C(=O)c8ccc(-c9nc%10ccc(-c%11ccc%12nc(-c%13ccc(C(=O)NCCN(C)C)cc%13)[nH]c%12c%11)cc%10[nH]9)cc8)C7)cc6)[nH]c5c4)cc3[nH]2)cc1 [Compound 454]
pIC50 (Table M): 5.47

CN(C)Cc1ccc(Oc2ccc3nc(-c4ccc(-c5nc6ccc(Oc7ccc(CN(C)C)cc7)cc6[nH]5)cc4)[nH]c3c2)cc1 [Compound 242]
pIC50 (Table M): 4.32

CC(C)(C)OC(=O)N1CCN=C1Nc1ccc2[nH]c(-c3ccc(-c4nc5cc(N)ccc5[nH]4)cc3)nc2c1 [Compound 23, tert-butyl 2-((2-(4-(5-amino-1H-benzo[d]imidazol-2-yl)phenyl)-1H-benzo[d]imidazol-5-yl)amino)-4,5-dihydro-1H-imidazole-1-carboxylate]
pIC50 (Table L): 4.26

CC(C)(C)OC(=O)N1CCN(CCNC(=O)c2ccc3nc(-c4ccc(-c5nc6ccc(C(=O)NCCN7CCCCC7)cc6[nH]5)cc4)[nH]c3c2)CC1 [Compound 125]
pIC50 (Table L): 4.59

CN(C)CCNC(=O)c1ccc(-c2nc3ccc(-c4ccc5nc(-c6ccc(C(=O)N7CCCC8C9CCCN(C(=O)c%10ccc(-c%11nc%12ccc(-c%13ccc%14nc(-c%15ccc(C(=O)NCCN(C)C)cc%15)[nH]c%14c%13)cc%12[nH]%11)cc%10)C9CCC87)cc6)[nH]c5c4)cc3[nH]2)cc1 (stereo not shown) [Compound 452]
pIC50 (Table M): 5.51

c1cc2nc(-c3ccc(-c4nc5ccc(OCCCN6CCCC6)cc5[nH]4)cc3)[nH]c2cc1OCCCN1CCCC1 [Compound 295]
pIC50 (Table M): 4.16

N=C(N)c1ccc2nc(-c3ccc(-c4nc5ccc(C(=N)N)cc5[nH]4)cc3)[nH]c2c1 [Compound 26, 2,2′-(1,4-phenylene)bis(1H-benzo[d]imidazole-6-carboximidamide) acetate]
pIC50 (Table L): 5.18

CC(C)(C)OC(=O)N1CCN(CCNC(=O)c2ccc3nc(-c4ccc(-c5nc6ccc(C(=O)NCCN7CCN(C(=O)OC(C)(C)C)CC7)cc6[nH]5)cc4)[nH]c3c2)CC1 [Compound 46, di-tert-butyl 4,4′-(((2,2′-(1,4-phenylene)bis(1H-benzo[d]imidazole-6,6′-carbonyl))bis(azanediyl))bis(ethane-2,1-diyl))bis(piperazine-1-carboxylate)]
pIC50 (Table L): < 3.70

CN(C)CCNC(=O)c1ccc2nc(-c3ccc(-c4nc5ccc(C(=O)NCCN(C)CCCCc6cn(CCCN)nn6)cc5[nH]4)cc3)[nH]c2c1 [Compound 74]
pIC50 (Table L): 5.17

CN(C)CCNC(=O)c1ccc(-c2nc3ccc(-c4ccc5nc(-c6ccc(C(=O)N(C)CCCc7cn(CCCNCC(=O)N8CCC[C@H]8C(=O)N8CCC[C@H]8C(=O)N8CCC[C@H]8C(=O)N8CCC[C@H]8C(=O)N(CCCn8cc(CCCN(C)C(=O)c9ccc(-c%10nc%11ccc(-c%12ccc%13nc(-c%14ccc(C(=O)NCCN(C)C)cc%14)[nH]c%13c%12)cc%11[nH]%10)cc9)nn8)CC(N)=O)nn7)cc6)[nH]c5c4)cc3[nH]2)cc1 [Compound 435]
pIC50 (Table M): 4.88

CN(C)CCNC(=O)c1ccc(-c2nc3cc(-c4ccc5[nH]c(-c6ccc(C(=O)NCCCCCCNC(=O)c7ccc(-c8nc9cc(-c%10ccc%11[nH]c(-c%12ccc(C(=O)NCCN(C)C)cc%12)nc%11c%10)ccc9[nH]8)cc7)cc6)nc5c4)ccc3[nH]2)cc1 [Compound 419]
pIC50 (Table M): 5.31

CCN(CC)CCCOc1ccc2nc(-c3ccc(-c4nc5ccc(O)cc5[nH]4)cc3)[nH]c2c1 [Compound 188]
pIC50 (Table M): 4.33

COc1c(-c2nc3ccc(OCCCN(C)C)cc3[nH]2)ccc(-c2nc3ccc(OCCCN(C)C)cc3[nH]2)c1OC [Compound 303, 3,3′-(((2,3-dimethoxy-1,4-phenylene)bis(1H-benzo[d]imidazole-2,6-diyl))bis(oxy))bis(N,N-dimethylpropan-1-amine)]
pIC50 (Table M): < 3.70

CN1CCC(Oc2ccc(-c3nc4cc(-c5ccc6[nH]c(-c7ccc(OC8CCN(C)CC8)cc7)nc6c5)ccc4[nH]3)cc2)CC1 [Compound 335]
pIC50 (Table M): 4.65

Nc1ccc2nc(-c3ccc(-c4nc5ccc(Nc6ncccn6)cc5[nH]4)cc3)[nH]c2c1 [Compound 5, 2-(4-(5-amino-1H-benzo[d]imidazol-2-yl)phenyl)-N-(pyrimidin-2-yl)-1H-benzo[d]imidazol-5-amine]
pIC50 (Table L): 4.12

CCCCCOc1ccc(-c2nc3cc(-c4ccc5[nH]c(-c6ccc(C(=O)NCCN(C)C)cc6)nc5c4)ccc3[nH]2)cc1 [Compound 392]
pIC50 (Table M): 4.74

CN(C)CCCOc1c(C(C)(C)C)cc(-c2nc3cc(-c4ccc5[nH]c(-c6cc(C(C)(C)C)c(O)c(C(C)(C)C)c6)nc5c4)ccc3[nH]2)cc1C(C)(C)C [Compound 372, 2,6-di-tert-butyl-4-(2′-(3,5-di-tert-butyl-4-(3-(dimethylamino)propoxy)phenyl)-1H,1′H-[5,5′-bibenzo[d]imidazol]-2-yl)phenol]
pIC50 (Table M): < 3.70

CN1CCC(COc2ccc3nc(-c4ccc(-c5nc6ccc(O)cc6[nH]5)cc4)[nH]c3c2)CC1 [Compound 194, 2-(4-(6-((1-methylpiperidin-4-yl)methoxy)-1H-benzo[d]imidazol-2-yl)phenyl)-1H-benzo[d]imidazol-6-ol]
pIC50 (Table M): 4.41

COC(=O)CCC(=O)NCCN(C)CCNC(=O)c1ccc2nc(-c3ccc(-c4nc5ccc(C(=O)NCCN(C)C)cc5[nH]4)cc3)[nH]c2c1 [Compound 72]
pIC50 (Table L): 4.28

Cn1c(-c2ccc(-c3nc4ccc(NC(=N)N)cc4n3C)cc2)nc2cc(NC(=N)N)ccc21 [Compound 87]
pIC50 (Table L): < 3.70

CN(C)CCNC(=O)c1ccc(-c2nc3ccc(-c4ccc5nc(-c6ccc(C(=O)NCCOCCOCc7cn(CCCNCC(=O)N8CCCC8C(=O)N8CCC[C@H]8C(=O)N(CCCn8cc(COCCOCCNC(=O)c9ccc(-c%10nc%11ccc(-c%12ccc%13nc(-c%14ccc(C(=O)NCCN(C)C)cc%14)[nH]c%13c%12)cc%11[nH]%10)cc9)nn8)CC(N)=O)nn7)cc6)[nH]c5c4)cc3[nH]2)cc1 (stereo partly shown) [Compound 437]
pIC50 (Table M): 5.12

O=C(NCCN1CCOCC1)c1ccc2nc(-c3ccc(-c4nc5ccc(C(=O)NCCN6CCOCC6)cc5[nH]4)cc3)[nH]c2c1 [Compound 42, 2,2′-(1,4-phenylene)bis(N-(2-morpholinoethyl)-1H-benzo[d]imidazole-6-carboxamide)]
pIC50 (Table L): < 3.70

Nc1ccc2nc(-c3ccc(-c4nc5ccc(Nc6ncc[nH]6)cc5[nH]4)cc3)[nH]c2c1 [Compound 19, 2-(4-(5-amino-1H-benzo[d]imidazol-2-yl)phenyl)-N-(1H-imidazol-2-yl)-1H-benzo[d]imidazol-5-amine]
pIC50 (Table L): 4.47

CN(C)CCCOc1ccc(-c2nc3cc(-c4ccc(C(=O)NCCN(C)CCN)cc4)ccc3[nH]2)cc1 [Compound 395]
pIC50 (Table M): < 3.70

CNCCNC(=O)c1ccc(-c2nc3cc(-c4ccc5[nH]c(-c6ccc(C(=O)NCCNC)cc6)nc5c4)ccc3[nH]2)cc1 [Compound 111, 4,4′-(1H,1′H-[5,5′-bibenzo[d]imidazole]-2,2′-diyl)bis(N-(2-(methylamino)ethyl)benzamide)]
pIC50 (Table L): 5.16

CNCCNC(=O)c1ccc2nc(-c3ccc(-c4nc5ccc(C(=O)NCCNC)cc5[nH]4)cc3)[nH]c2c1 [Compound 28, 2,2′-(1,4-phenylene)bis(N-(2-(methylamino)ethyl)-1H-benzo[d]imidazole-6-carboxamide)]
pIC50 (Table L): 4.91
